Assay results reported in paper PMC12090182, “Repurposing of the RIPK1-Selective Benzo[1,4]oxazepin-4-one Scaffold for the Development of a Type III LIMK1/2 Inhibitor” (ACS Chemical Biology, 2025).

Legend:
Experiment in all cases: scanMAX KINOMEscan (Eurofins)
Type in all cases: binding
[1] = target: WNK1 (Homo sapiens, UniProt Q9H4A3); settings: compound concentration 100 nM; Entrez WNK1; read-out: Percent Control
Text: (§1) Supplement cb5c00097_si_002.xlsx, sheet "Table S6 (Eurofins Selectivity)" | column: Percent Control

[2] = target: TESK1 (Homo sapiens, UniProt Q15569); settings: 1000 nM, read-out: Percent Control
Chain of TESK1 (Q15569 whole entry): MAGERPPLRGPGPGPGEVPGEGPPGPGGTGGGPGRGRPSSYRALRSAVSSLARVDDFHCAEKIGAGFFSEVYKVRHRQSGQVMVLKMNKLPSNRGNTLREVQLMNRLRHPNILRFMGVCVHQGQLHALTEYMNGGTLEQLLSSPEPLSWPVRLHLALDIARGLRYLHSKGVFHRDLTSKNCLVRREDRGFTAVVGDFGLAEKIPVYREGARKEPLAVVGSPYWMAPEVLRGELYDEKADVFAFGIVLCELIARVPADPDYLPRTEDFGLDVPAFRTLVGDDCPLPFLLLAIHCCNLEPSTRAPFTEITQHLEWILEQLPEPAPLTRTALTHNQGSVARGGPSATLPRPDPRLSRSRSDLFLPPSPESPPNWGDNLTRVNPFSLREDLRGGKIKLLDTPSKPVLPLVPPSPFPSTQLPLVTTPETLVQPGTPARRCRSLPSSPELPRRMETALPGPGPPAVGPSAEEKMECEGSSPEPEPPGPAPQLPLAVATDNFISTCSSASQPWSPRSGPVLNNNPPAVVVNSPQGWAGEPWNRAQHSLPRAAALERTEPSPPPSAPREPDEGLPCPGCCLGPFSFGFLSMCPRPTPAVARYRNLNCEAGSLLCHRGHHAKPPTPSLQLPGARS
Text: as §1

[3] = target: DAPK2 (Homo sapiens, UniProt Q9UIK4); settings: 1000 nM, read-out: Percent Control
Text: as §1

[4] = target: PRKCI (Homo sapiens, UniProt P41743); settings: 1000 nM, read-out: Percent Control
Text: as §1

[5] = target: GRK1 (Homo sapiens, UniProt Q15835); settings: read-out: Percent Control
Chain of GRK1 (Q15835 whole entry): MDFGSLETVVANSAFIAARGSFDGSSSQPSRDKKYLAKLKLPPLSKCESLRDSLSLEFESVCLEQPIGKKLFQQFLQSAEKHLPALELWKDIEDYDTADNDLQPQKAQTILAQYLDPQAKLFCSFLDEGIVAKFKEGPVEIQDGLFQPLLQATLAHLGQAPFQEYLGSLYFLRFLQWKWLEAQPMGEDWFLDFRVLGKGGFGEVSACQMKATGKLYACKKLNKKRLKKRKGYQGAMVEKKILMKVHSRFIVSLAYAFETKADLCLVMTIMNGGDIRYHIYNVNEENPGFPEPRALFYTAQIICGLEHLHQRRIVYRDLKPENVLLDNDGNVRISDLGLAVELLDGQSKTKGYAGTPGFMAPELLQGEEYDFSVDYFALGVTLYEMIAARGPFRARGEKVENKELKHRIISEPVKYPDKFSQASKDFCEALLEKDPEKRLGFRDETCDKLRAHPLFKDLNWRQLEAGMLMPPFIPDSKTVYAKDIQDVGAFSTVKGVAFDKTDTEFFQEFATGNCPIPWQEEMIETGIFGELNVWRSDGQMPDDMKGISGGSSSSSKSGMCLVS
Text: as §1

[6] = target: PRKD3 (Homo sapiens, UniProt O94806); settings: 1000 nM, read-out: Percent Control
Text: as §1

[7] = target: EPHB2 (Homo sapiens, UniProt P29323); settings: 1000 nM, read-out: Percent Control
Text: as §1

[8] = target: GRK7 (Homo sapiens, UniProt Q8WTQ7); settings: 1000 nM, read-out: Percent Control
Text: as §1

[9] = target: PLK2 (Homo sapiens, UniProt Q9NYY3); settings: compound concentration 100 nM; Entrez PLK2; read-out: Percent Control
Text: as §1

[10] = target: CDK3 (Homo sapiens, UniProt Q00526); settings: 1000 nM, read-out: Percent Control
Text: as §1

[11] = target: PRKCD (Homo sapiens, UniProt Q05655); settings: compound concentration 100 nM; Entrez PRKCD; read-out: Percent Control
Text: as §1

[12] = target: NIM1 (Homo sapiens, UniProt Q8IY84); settings: compound concentration 100 nM; Entrez MGC42105; read-out: Percent Control
Text: as §1

[13] = target: EPHB6 (Homo sapiens, UniProt O15197); settings: 1000 nM, read-out: Percent Control
Text: as §1

[14] = target: ACVR1B (Homo sapiens, UniProt P36896); settings: 1000 nM, read-out: Percent Control
Text: as §1

[15] = target: IRAK3 (Homo sapiens, UniProt Q9Y616); settings: read-out: Percent Control
Chain of IRAK3 (Q9Y616 whole entry): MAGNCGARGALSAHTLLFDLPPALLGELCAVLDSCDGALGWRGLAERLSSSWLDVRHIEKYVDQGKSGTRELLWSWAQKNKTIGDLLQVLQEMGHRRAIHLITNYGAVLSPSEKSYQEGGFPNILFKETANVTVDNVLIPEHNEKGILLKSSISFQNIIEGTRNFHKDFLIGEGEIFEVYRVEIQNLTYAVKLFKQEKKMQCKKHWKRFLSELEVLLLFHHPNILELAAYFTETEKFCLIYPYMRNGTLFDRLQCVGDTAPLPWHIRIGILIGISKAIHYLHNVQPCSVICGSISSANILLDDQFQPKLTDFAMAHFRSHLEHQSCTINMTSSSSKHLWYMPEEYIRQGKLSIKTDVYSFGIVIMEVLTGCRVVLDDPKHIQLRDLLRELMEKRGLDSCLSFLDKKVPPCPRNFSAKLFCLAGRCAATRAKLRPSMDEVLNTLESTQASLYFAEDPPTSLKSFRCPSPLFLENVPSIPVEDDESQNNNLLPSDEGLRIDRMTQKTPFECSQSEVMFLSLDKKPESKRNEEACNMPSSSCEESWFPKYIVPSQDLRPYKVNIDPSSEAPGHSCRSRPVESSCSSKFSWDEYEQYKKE
Text: as §1

[16] = tested on: FLT3(ITD); settings: 1000 nM
Text: as §1

[17] = target: FLT1 (Homo sapiens, UniProt P17948); settings: 1000 nM, read-out: Percent Control
Text: as §1

[18] = target: CDK9 (Homo sapiens, UniProt P50750); settings: 1000 nM, read-out: Percent Control
Text: as §1

[19] = target: MUSK (Homo sapiens, UniProt O15146); settings: 1000 nM, read-out: Percent Control
Text: as §1

[20] = target: NEK10 (Homo sapiens, UniProt Q6ZWH5); settings: 1000 nM, read-out: Percent Control
Text: as §1

[21] = target: PFTAIRE2 (Homo sapiens, UniProt Q96Q40); settings: 1000 nM, read-out: Percent Control
Text: as §1

[22] = target: IRAK1 (Homo sapiens, UniProt P51617); settings: read-out: Percent Control
Chain of IRAK1 (P51617 whole entry): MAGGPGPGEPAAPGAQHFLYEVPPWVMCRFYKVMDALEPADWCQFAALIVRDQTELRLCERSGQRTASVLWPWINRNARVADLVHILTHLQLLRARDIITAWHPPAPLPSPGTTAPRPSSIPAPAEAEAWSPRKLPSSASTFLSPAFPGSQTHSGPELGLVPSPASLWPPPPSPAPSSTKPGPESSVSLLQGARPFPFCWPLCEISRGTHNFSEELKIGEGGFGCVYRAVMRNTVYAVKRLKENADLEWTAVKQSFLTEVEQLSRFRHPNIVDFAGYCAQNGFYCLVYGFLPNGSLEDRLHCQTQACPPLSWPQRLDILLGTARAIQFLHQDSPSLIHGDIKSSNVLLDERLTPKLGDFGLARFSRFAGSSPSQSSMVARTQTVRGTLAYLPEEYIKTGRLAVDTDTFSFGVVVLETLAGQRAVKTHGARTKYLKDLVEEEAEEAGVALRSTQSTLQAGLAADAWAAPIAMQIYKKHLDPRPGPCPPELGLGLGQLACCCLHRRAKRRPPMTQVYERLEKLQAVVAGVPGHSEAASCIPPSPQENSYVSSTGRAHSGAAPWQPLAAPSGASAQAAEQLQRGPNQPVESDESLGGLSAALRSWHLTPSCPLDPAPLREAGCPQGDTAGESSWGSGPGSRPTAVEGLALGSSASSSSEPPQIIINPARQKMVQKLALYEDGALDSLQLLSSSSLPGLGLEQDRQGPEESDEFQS
Text: as §1

[23] = target: CSNK2A2 (Homo sapiens, UniProt P19784); settings: 1000 nM, read-out: Percent Control
Text: as §1

[24] = target: HCK (Homo sapiens, UniProt P08631); settings: 1000 nM, read-out: Percent Control
Text: as §1

[25] = target: ULK2 (Homo sapiens, UniProt Q8IYT8); settings: compound concentration 100 nM; Entrez ULK2; read-out: Percent Control
Text: as §1

[26] = target: PKAC-alpha (Homo sapiens, UniProt P17612); settings: compound concentration 100 nM; Entrez PRKACA; read-out: Percent Control
Text: as §1

[27] = target: PFCDPK1(P.falciparum) (Plasmodium falciparum, UniProt P62344); settings: compound concentration 100 nM; Entrez CDPK1; read-out: Percent Control
Text: as §1

[28] = target: DLK (Homo sapiens, UniProt Q12852); settings: 1000 nM, read-out: Percent Control
Text: as §1

[29] = target: CIT (Homo sapiens, UniProt O14578); settings: 1000 nM, read-out: Percent Control
Text: as §1

[30] = target: PAK4 (Homo sapiens, UniProt O96013); settings: 1000 nM, read-out: Percent Control
Text: as §1

[31] = target: LYN (Homo sapiens, UniProt P07948); settings: 1000 nM, read-out: Percent Control
Text: as §1

[32] = target: RSK2(Kin.Dom.2-C-terminal) (Homo sapiens, UniProt P51812); settings: 1000 nM, read-out: Percent Control
Text: as §1

[33] = target: DMPK2 (Homo sapiens, UniProt Q6DT37); settings: read-out: Percent Control
Chain of DMPK2 (Q6DT37 whole entry): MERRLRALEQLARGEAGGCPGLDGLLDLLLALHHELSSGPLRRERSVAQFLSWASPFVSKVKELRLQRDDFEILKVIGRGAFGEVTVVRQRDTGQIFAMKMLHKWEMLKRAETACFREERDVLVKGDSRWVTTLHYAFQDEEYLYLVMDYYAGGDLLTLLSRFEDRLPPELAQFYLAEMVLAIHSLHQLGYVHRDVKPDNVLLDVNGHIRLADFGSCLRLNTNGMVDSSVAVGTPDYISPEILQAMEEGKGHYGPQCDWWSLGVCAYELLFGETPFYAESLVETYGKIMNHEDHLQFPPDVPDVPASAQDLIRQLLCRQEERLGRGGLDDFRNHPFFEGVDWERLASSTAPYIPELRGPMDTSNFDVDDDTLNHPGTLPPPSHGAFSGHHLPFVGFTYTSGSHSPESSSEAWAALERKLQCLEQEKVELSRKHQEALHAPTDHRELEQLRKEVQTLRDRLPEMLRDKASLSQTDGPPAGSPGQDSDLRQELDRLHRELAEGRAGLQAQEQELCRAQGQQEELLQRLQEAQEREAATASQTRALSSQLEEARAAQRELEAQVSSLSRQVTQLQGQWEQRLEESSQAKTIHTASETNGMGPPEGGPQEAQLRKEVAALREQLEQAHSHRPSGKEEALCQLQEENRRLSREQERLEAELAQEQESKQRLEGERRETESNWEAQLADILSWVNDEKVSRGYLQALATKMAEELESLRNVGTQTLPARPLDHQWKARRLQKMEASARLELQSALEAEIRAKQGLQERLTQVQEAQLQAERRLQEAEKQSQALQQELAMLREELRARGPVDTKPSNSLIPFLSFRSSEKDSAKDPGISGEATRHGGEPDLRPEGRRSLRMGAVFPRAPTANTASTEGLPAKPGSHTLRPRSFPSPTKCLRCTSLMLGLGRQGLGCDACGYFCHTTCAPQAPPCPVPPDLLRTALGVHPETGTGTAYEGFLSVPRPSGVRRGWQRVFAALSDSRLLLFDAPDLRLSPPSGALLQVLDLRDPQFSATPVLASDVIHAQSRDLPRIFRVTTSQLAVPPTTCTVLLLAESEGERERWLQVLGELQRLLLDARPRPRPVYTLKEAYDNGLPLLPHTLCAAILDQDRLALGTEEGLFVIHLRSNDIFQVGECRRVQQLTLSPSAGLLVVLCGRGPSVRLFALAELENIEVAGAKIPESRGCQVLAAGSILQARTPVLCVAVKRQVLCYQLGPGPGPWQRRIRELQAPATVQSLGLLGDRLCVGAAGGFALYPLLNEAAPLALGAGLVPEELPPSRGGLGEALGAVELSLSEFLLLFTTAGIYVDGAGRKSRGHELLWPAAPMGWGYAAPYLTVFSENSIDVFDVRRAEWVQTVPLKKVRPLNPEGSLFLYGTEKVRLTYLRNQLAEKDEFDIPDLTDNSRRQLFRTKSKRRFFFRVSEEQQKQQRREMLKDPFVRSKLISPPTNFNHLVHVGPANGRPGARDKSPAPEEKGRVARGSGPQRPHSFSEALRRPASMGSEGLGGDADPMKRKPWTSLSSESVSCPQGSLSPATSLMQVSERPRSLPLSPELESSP
Text: as §1

[34] = target: EPHA7 (Homo sapiens, UniProt Q15375); settings: read-out: Percent Control
Chain of EPHA7 (Q15375 28-998): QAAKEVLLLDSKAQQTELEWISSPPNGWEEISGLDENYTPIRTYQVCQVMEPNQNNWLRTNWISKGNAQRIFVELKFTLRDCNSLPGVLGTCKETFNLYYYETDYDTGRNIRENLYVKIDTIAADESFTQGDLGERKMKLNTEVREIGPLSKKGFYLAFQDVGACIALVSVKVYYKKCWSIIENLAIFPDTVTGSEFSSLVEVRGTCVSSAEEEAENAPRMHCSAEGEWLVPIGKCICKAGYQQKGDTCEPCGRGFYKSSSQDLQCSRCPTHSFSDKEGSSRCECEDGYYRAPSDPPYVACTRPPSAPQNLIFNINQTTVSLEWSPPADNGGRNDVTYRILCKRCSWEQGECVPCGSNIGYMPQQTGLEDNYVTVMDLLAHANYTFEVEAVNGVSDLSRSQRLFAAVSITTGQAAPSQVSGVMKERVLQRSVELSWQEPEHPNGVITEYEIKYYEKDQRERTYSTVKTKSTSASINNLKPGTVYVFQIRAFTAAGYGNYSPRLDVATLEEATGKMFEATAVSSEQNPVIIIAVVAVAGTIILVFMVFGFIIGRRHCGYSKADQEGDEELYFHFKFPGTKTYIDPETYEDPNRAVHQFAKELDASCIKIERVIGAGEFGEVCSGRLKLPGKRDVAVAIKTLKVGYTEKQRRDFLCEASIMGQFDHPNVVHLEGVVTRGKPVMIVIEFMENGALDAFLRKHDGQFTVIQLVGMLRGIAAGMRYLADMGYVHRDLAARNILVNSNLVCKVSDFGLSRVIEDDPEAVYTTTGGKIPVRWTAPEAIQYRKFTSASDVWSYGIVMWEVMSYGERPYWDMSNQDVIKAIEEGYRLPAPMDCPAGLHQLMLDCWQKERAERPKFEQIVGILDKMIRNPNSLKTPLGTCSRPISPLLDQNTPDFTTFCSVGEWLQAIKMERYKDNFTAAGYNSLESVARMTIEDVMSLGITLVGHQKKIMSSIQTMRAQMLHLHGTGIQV
Text: as §1

[35] = target: EPHA6 (Homo sapiens, UniProt Q9UF33); settings: 1000 nM, read-out: Percent Control
Text: as §1

[36] = target: ACVRL1 (Homo sapiens, UniProt P37023); settings: 1000 nM, read-out: Percent Control
Text: as §1

[37] = target: PIK3CA (Homo sapiens, UniProt P42336); settings: 1000 nM, read-out: Percent Control
Text: as §1

SMILES: CN1C(=O)[C@@H](N2CCc3c(nn(Cc4ccccc4)c3C(N)=O)C2=O)COc2cc(Cl)ccc21 [Compound 10, (S)-2-benzyl-6-(8-chloro-5-methyl-4-oxo-2,3,4,5-tetrahydrobenzo[b][1,4]oxazepin-3-yl)-7-oxo-4,5,6,7-tetrahydro-2H-pyrazolo[3,4-c]pyridine-3-carboxamide]
- remaining binding at 0.1 µM [1]: 92%
- remaining binding at 1 µM [2]: 79%
- remaining binding at 1 µM [3]: 86%
- remaining binding at 1 µM [4]: 80%
- remaining binding at 1 µM ([5]; 1000 nM): 100%
- remaining binding at 0.1 µM ([5]; compound concentration 100 nM, Entrez GRK1): 100%
- remaining binding at 1 µM [6]: 92%
- remaining binding at 1 µM [7]: 81%
- remaining binding at 1 µM [8]: 98%
- remaining binding at 0.1 µM [9]: 100%
- remaining binding at 1 µM [10]: 87%
- remaining binding at 0.1 µM [11]: 83%
- remaining binding at 0.1 µM [12]: 99%
- remaining binding at 1 µM [13]: 94%
- remaining binding at 1 µM [14]: 86%
- remaining binding at 1 µM ([15]; 1000 nM): 100%
- remaining binding at 0.1 µM ([15]; compound concentration 100 nM, Entrez IRAK3): 95%
- Percent Control [16]: 77%
- remaining binding at 1 µM [17]: 86%
- remaining binding at 1 µM [18]: 85%
- remaining binding at 1 µM [19]: 92%
- remaining binding at 1 µM [20]: 94%
- remaining binding at 1 µM [21]: 90%
- remaining binding at 1 µM ([22]; 1000 nM): 100%
- remaining binding at 0.1 µM ([22]; compound concentration 100 nM, Entrez IRAK1): 100%
- remaining binding at 1 µM [23]: 88%
- remaining binding at 1 µM [24]: 92%
- remaining binding at 0.1 µM [25]: 80%
- remaining binding at 0.1 µM [26]: 90%
- remaining binding at 0.1 µM [27]: 97%
- remaining binding at 1 µM [28]: 81%
- remaining binding at 1 µM [29]: 79%
- remaining binding at 1 µM [30]: 73%
- remaining binding at 1 µM [31]: 77%
- remaining binding at 1 µM [32]: 88%
- remaining binding at 1 µM ([33]; 1000 nM): 100%
- remaining binding at 0.1 µM ([33]; compound concentration 100 nM, Entrez CDC42BPG): 92%
- remaining binding at 1 µM ([34]; 1000 nM): 100%
- remaining binding at 0.1 µM ([34]; compound concentration 100 nM, Entrez EPHA7): 91%
- remaining binding at 1 µM [35]: 86%
- remaining binding at 1 µM [36]: 91%
- remaining binding at 1 µM [37]: 92%
